Patent publication EP4796125A1, “TREATMENT OF PATIENT WITH NEGATIVE P53 GENE MUTATION, POSITIVE KRAS GENE MUTATION AND POSITIVE BRCA MUTATION” (Ascentawits Pharmaceuticals, Ltd., priority 2023, dated 2025)

How the values were obtained:
[1] = tested on: Ser15-p53, Ser20-p53, Total p53, MDM2, and p21 proteins in H460 cells; assay: WB detection of p53 protein pathway (Ser15-p53, Ser20-p53, Total p53, MDM2, p21); assay type: cell-based; conditions: second experiment: 0.1, 0.3, 1 nM AST-3424 ± 5 µM Nutlin-3, 24 hours, AST-3424 dose-dependent (Figure 16)
Experimental: • 1) H460 cell suspension was added to a 24-well plate, with a cell density of 80000 cells/well and 995 µL of medium per well. • 2) The cells were cultured overnight in a 37°C, 5% CO2 incubator. • 3) Compound Treatment
24 hours after cell plating, according to the protocol, the experimental groups for each cell line were as follows: • Monotherapy: 24 hours after cell plating, 5 µL of test compounds at different concentrations was added: 0.5% DMSO, 0.1 nM AST-3424, and 5 µM Nutlin-3. The plate was gently shaken to ensure even mixing, and then placed in a 37°C, 5% CO2 incubator. • Combination therapy: 24 hours after cell plating, 5 µL of test compounds at different concentrations was added. After pre-treatment with 5 µM Nutlin-3 for 2 hours, 0.1 nM AST-3424 was added. The plate was gently shaken to ensure even mixing, and then placed in a 37°C, 5% CO2 incubator.
4) Cell protein lysates were collected for WB detection.
• Adding 0.1 nM AST-3424 for pre-treatment for 2 hours, and then adding 5 µM Nutlin-3 for co-treatment for 22 hours; • Adding 0.3 nM AST-3424 for pre-treatment for 2 hours, and then adding 5 µM Nutlin-3 for co-treatment for 22 hours; • Adding 1 nM AST-3424 for pre-treatment for 2 hours, and then adding 5 µM Nutlin-3 for co-treatment for 22 hours. […]

[2] = tested on: Total P53, MDM2, P21, AKR1C3 proteins in H460 cells; assay: WB detection ± Nutlin-3 in H460 and H460 P53 KO cells; assay type: cell-based; conditions: wild-type H460 cells; 5 µM Nutlin-3, 24h; compared with the H460 wild-type DMSO group (Figures 33, 34)
Experimental: • 1) H460 and H460 P53 KO cell suspensions were added to 24-well plates, with a cell density of 100000 cells/well and 995 µL of medium per well. • 2) The cells were cultured overnight in a 37°C, 5% CO2 incubator. • 3) Compound Treatment
24 hours after cell plating, according to the protocol, the experimental groups for each cell line were as follows: H460 WT non-treatment group, H460 P53 KO # 1 non-treatment group, H460 P53 KO # 7 non-treatment group, H460 P53 KO # 8 non-treatment group, H460 P53 KO # 12 non-treatment group, H460 WT 0.1% DMSO treatment group, H460 WT 5 µM Nutlin-3 treatment group, H460 P53 KO # 1 5 µM Nutlin-3 treatment group, H460 P53 KO # 7 5 µM Nutlin-3 treatment group, H460 P53 KO # 8 5 µM Nutlin-3 treatment group, and H460 P53 KO # 12 5 µM Nutlin-3 treatment group.
Monotherapy: 24 hours after cell plating, 5 µL of test compounds at different concentrations was added. […]
• 1) The cell plates were taken out and the medium supernatant was discarded. […] The cells were scraped off with a cell scraper, lysed on ice for 30 min, and centrifuged at 14000 rpm at 4°C for 10 min. • 2) Protein quantification was performed using the BCA assay. […] After the incubation, the membranes were washed three times with TBST (10 min per wash).The ECL luminescence solutions A and B (SuperSignal West Femto Maximum Sensitivity) were mixed and added to the membranes blotting dry. […]

HPAF-II cells [3] = assay: In vitro proliferation inhibition experiment (CTG, 72 hours), Example 20; assay type: cell-based, human; conditions: Table 14, HPAF-II
Experimental: (§1) • 1) H460 and HPAF-II cell suspensions were added to a 96-well plate (100 µL per well), with cell densities of 2000 cells/well and 20000 cells/well, respectively. • 2) The cells were cultured overnight in a 37°C, 5% CO2 incubator. • 3) Compound Treatment
(§2) Combination therapy: 24 hours after cell plating, each well was supplemented with 99 µL of growth medium. Then, 0.5 µL of Nutlin-3 or RITA was added to each well. The plate was gently shaken to ensure even mixing, and then placed in an incubator for 2 hours. Then, 0.5 µL of test compounds at different concentrations was added. The plate was gently shaken to ensure even mixing, and then placed in a 37°C, 5% CO2 incubator.
(§3) Monotherapy: 24 hours after cell plating, each well was supplemented with 99.5 µL of growth medium. Then, 0.5 µL of test compounds at different concentrations was added. The plate was gently shaken to ensure even mixing, and then placed in a 37°C, 5% CO2 incubator. • 4) The cell plate was placed in the incubator for 72 hours. • 5) The cell plate to be tested was placed at room temperature and equilibrated for 30 minutes, and 100 µL of medium was discarded from each well. • 6) 25 µL of CTG reagent was added to each well, placed on a fast shaker to shake for 2 minutes, and placed at room temperature for 30 minutes (protected from light). • 7) The chemiluminescence signal value was read using a multifunctional microplate reader with a reading time of 1000 ms, and the corresponding inhibition rate data were calculated.

HPAF-II cells [4] = assay: Cell cycle G2/M arrest, PI staining and flow cytometry; assay type: cell-based, human; conditions: HPAF-II cells with p53 pathogenic mutations; 0.1 nM AST-3424, 5 µM Nutlin-3 (Figure 9)
Experimental: (§4) • 1) H460/HPAF-II cell suspensions were added to a 24-well plate, with a cell density of 100000 cells/well and 995 µL of medium per well. • 2) The cells were cultured overnight in a 37°C, 5% CO2 incubator. • 3) Compound Treatment
(§5) 24 hours after cell plating, according to the protocol, the experimental groups for each cell line were as follows: Monotherapy: 24 hours after cell plating, 5 µL of test compounds at different concentrations was added: 1% DMSO, 5 µM Nutlin-3, and 0.1 nM AST-3424. The plate was gently shaken to ensure even mixing, and then placed in a 37°C, 5% CO2 incubator.
• Cells were pretreated with AST-3424 for 2 hours, and then co-treatment with Nutlin-3 for 24 hours; • cells were pretreated with Nutlin-3 for 2 hours, and then co-treatment with AS -3424 for 24 hours; and • cells were co-treated with AST-3424 and Nutlin-3 for 24 hours. • 4) The cells were digested, centrifuged at 1000 g at 4°C, washed once with pre-cooled PBS, centrifuged at 1000 g at 4°C, and fixed with 1 mL of pre-cooled 70% ethanol at - 20°C overnight. • 5) The cells were centrifuged at 3000 g at 4°C, washed once with pre-cooled PBS (phosphate buffer), and centrifuged at 3000g at 4°C. PI staining solution was prepared. […] The cells were detected using a flow cytometer on the same day, and the proportions of cells in different cell cycle phases was analyzed using FlowJo.

H460 cells [5] = assay: as above; assay type: cell-based; conditions: 0.1 nM AST-3424, 5 µM Nutlin-3, 24 hours, combination: AST-3424 added first (Figure 9)
Experimental: as §4, §5
• Cells were pretreated with AST-3424 for 2 hours, and then co-treatment with Nutlin-3 for 24 hours; • cells were pretreated with Nutlin-3 for 2 hours, and then co-treatment with AS -3424 for 24 hours; and • cells were co-treated with AST-3424 and Nutlin-3 for 24 hours. • 4) The cells were digested, centrifuged at 1000 g at 4°C, washed once with pre-cooled PBS, centrifuged at 1000 g at 4°C, and fixed with 1 mL of pre-cooled 70% ethanol at - 20°C overnight. • 5) The cells were centrifuged at 3000 g at 4°C, washed once with pre-cooled PBS (phosphate buffer), and centrifuged at 3000g at 4°C. PI staining solution was prepared. The cells were stained at 37°Cfor 30 minutes (protected from light), and stored in an ice bath (protected from light). The cells were detected using a flow cytometer on the same day, and the proportions of cells in different cell cycle phases was analyzed using FlowJo.
The remaining operations were similar to those of the above experiment, and the compound treatment was as follows: […]

H460 cells [6] = assay: In vitro proliferation inhibition experiment (CTG, 72 hours), Example 20; assay type: cell-based
Experimental: as §1, §2, §3

How did the “phosphorylation of p53 (Ser15-p53 and Ser20-p53), protein expression of total-p53, expression of MDM2 and p21” value [1] turn out when `COc1ccc(C2=N[C@@H](c3ccc(Cl)cc3)[C@@H](c3ccc(Cl)cc3)N2C(=O)N2CCNC(=O)C2)c(OC(C)C)c1` [Nutlin-3] was run?
Its value is “upregulates”.

And the “expressions of MDM2, P53, P21, and AKR1C3 proteins” value [2]?
The value was “all upregulated”.

And the “Inhibition rate result / %” value (HPAF-II cells [3]; group 1: AST 20 nM, Nutlin-3 7.5 µM, AST + Nutlin-3 20+7.5)?
The value was 8.54%.

What about the “Inhibition rate result / %” value (HPAF-II cells [3]; group 2: AST 20 nM, Nutlin-3 10 µM, AST + Nutlin-3 20+10) of the same molecule?
The value was 52.46%.

What about the “Inhibition rate result / %” value (HPAF-II cells [3]; group 3: AST 20 nM, Nutlin-3 15 µM, AST + Nutlin-3 20+15) of the same molecule?
Its value is 73.93%.

What about the “Inhibition rate result / %” value (HPAF-II cells [3]; group 4: AST 60 nM, Nutlin-3 7.5 µM, AST + Nutlin-3 60+7.5) of the same molecule?
The value was 8.54%.

And the “Inhibition rate result / %” value (HPAF-II cells [3]; group 5: AST 60 nM, Nutlin-3 10 µM, AST + Nutlin-3 60+10)?
The value was 52.46%.

What about the “Inhibition rate result / %” value (HPAF-II cells [3]; group 6: AST 60 nM, Nutlin-3 15 µM, AST + Nutlin-3 60+15) of the same molecule?
Its value is 73.93%.

What about the “cell cycle (G0/G1, S, G2/M phases)” value (HPAF-II cells [4]) of the same molecule?
Its value is “has no effect”.

And the “cell cycle (G0/G1, S, G2/M phases)” value (H460 cells [5])?
The value was “does not significantly alter the cell cycle”.

What about the “Inhibition rate result / %” value (H460 cells [6]; Table 12, H460, group 1: AST 0.5 nM, Nutlin-3 0.25 µM, AST + Nutlin-3 0.5+0.25) of the same molecule?
Its value is 11.8%.

What about the “Inhibition rate result / %” value (H460 cells [6]; Table 12, H460, group 2: AST 0.5 nM, Nutlin-3 0.5 µM, AST + Nutlin-3 0.5+0.5) of the same molecule?
Its value is 17.27%.

And the “Inhibition rate result / %” value (H460 cells [6]; Table 12, H460, group 3: AST 0.5 nM, Nutlin-3 1 µM, AST + Nutlin-3 0.5+1)?
The value was 18.3%.

What about the “Inhibition rate result / %” value (H460 cells [6]; Table 12, H460, group 4: AST 1.5 nM, Nutlin-3 0.25 µM, AST + Nutlin-3 1.5+0.25) of the same molecule?
The value was 11.8%.

And the “Inhibition rate result / %” value (H460 cells [6]; Table 12, H460, group 5: AST 1.5 nM, Nutlin-3 0.5 µM, AST + Nutlin-3 1.5+0.5)?
Its value is 17.27%.

And the “Inhibition rate result / %” value (H460 cells [6]; Table 12, H460, group 6: AST 1.5 nM, Nutlin-3 1 µM, AST + Nutlin-3 1.5+1)?
The value was 18.3%.
